ChEMBL document CHEMBL5360538, “Recent updates on 1,2,3-triazole-containing hybrids with in vivo therapeutic potential against cancers: A mini-review” (Eur J Med Chem, 2023)
Blank lines part the entries; values can stand above or below the molecule they belong to.

Experiments:
BGC-823 [1] = assay: Antiproliferative activity against human BGC-823 cells assessed as inhibition of cell growth incubated for 72 hrs by MTT assay; type: functional, cell-based; conditions: BGC-823, 72 h
MGC-803 [2] = assay: Antiproliferative activity against human MGC-803 cells assessed as inhibition of cell growth incubated for 72 hrs by MTT assay; type: functional, cell-based; conditions: MGC-803, 72 h
SGC-7901 [3] = assay: Antiproliferative activity against human SGC-7901 cells assessed as inhibition of cell growth incubated for 72 hrs by MTT assay; type: functional, cell-based; conditions: SGC-7901, 72 h
MGC-803 [4] = assay: Antitumor activity against human MGC-803 cells xenografted in BALB/c nude mouse model assessed as inhibition of tumor growth at 60 mg/kg, IG administered daily for 21 days relative to control; type: functional; conditions: MGC-803, po, 504 h, time 21 day
BGC-823 [5] = assay: Potency index, ratio of 5-fluorouracil IC50 to test compound IC50 for antiproliferative activity against human BGC-823 cells assessed as inhibition of cell growth incubated for 72 hrs by MTT assay; type: functional
MGC-803 [6] = assay: Potency index, ratio of 5-fluorouracil IC50 to test compound IC50 for antiproliferative activity against human MGC-803 cells assessed as inhibition of cell growth incubated for 72 hrs by MTT assay; type: functional
SGC-7901 [7] = assay: Potency index, ratio of 5-fluorouracil IC50 to test compound IC50 for antiproliferative activity against human SGC-7901 cells assessed as inhibition of cell growth incubated for 72 hrs by MTT assay; type: functional
A549 [8] = assay: Antiproliferative activity against human A549 cells assessed as inhibition of cell growth by MTT assay; type: functional, cell-based
[9] = Antiproliferative activity against human IMR-90 cells assessed as inhibition of cell growth by MTT assay; type: toxicity, cell-based
A549 [10] = assay: Antitumor activity against human A549 cells xenografted in zebrafish model assessed as reduction in tumor focal area at 2.5 uM relative to control; type: functional; design: scale not given: the % may be the effect or the level left
[11] = Antiproliferative activity against BCRP-mediated Topotecan-resistant HEK293/R2 cells assessed as inhibition of cell growth incubated for 5 days by MTS assay; type: functional, cell-based; conditions: Homo sapiens, HEK293/R2, 120 h
[12] = Antiproliferative activity against BCRP-mediated human Topotecan-resistant MCF7/MX100 cells assessed as inhibition of cell growth incubated for 5 days by MTS assay; type: functional, cell-based; conditions: MCF7/MX100, 120 h
[13] = Antiproliferative activity against BCRP-mediated human Topotecan-resistant S1M180 cells assessed as inhibition of cell growth incubated for 5 days by MTS assay; type: functional, cell-based; conditions: 120 h
[14] = Antiproliferative activity against BCRP-mediated human Doxorubicin-resistant S1M180 cells assessed as inhibition of cell growth incubated for 5 days by MTS assay; type: functional, cell-based; conditions: S1-M1-80, 120 h
[15] = Antiproliferative activity against […]-mediated human Doxorubicin-resistant 2008/MRP1 cells assessed as inhibition of cell growth incubated for 5 days by MTS assay; type: functional, cell-based, Doxorubicin-resistant 2008/MRP1 cell; conditions: 2008/MRP1, 120 h
[16] = AUC(0 to infinity) in BALB/c mouse at 45 mg/kg, ip measured up to 24 hrs; type: ADME, organism-based; design: dose 45 mg/kg, time < 24 hrs, route ip; conditions: in vivo
[17] = Tmax in BALB/c mouse at 45 mg/kg, ip measured up to 24 hrs; type: ADME, organism-based; conditions: in vivo
[18] = Cmax in BALB/c mouse at 45 mg/kg, ip measured up to 24 hrs; type: ADME, organism-based; design: time < 24 hrs, dose 45 mg/kg, route ip; conditions: in vivo
[19] = Half life in BALB/c mouse at 45 mg/kg, ip measured up to 24 hrs; type: ADME, organism-based; conditions: in vivo
[20] = Antitumor activity against human Topotecan-resistant S1M180 cells over expressing BCRP xenografted in BALB/c nude mouse model assessed as reduction in tumor volume at 45 mg/kg, ip administered every 2 days for 6 times relative to control; type: functional, Topotecan-resistant S1M180 cell; design: scale not given: the % may be the effect or the level left; conditions: time 12 day
[21] = Antitumor activity against human Topotecan-resistant S1M180 cells over expressing BCRP xenografted in BALB/c nude mouse model assessed as fold change in topotecan level at 45 mg/kg, ip administered every 2 days for 6 times relative to control; type: functional, Topotecan-resistant S1M180 cell; conditions: time 12 day
Hep 3B2 = assay: Antiproliferative activity against human Hep3B cells assessed as inhibition of cell growth incubated for 72 hrs by MTT assay; type: functional, cell-based
HepG2 [22] = assay: Antiproliferative activity against human HepG2 cells assessed as inhibition of cell growth incubated for 72 hrs by MTT assay; type: functional, cell-based; conditions: HepG2, 72 h
H22 [23] = assay: Antitumor activity against […] cells xenografted in BALB/c mouse model assessed as inhibition of tumor growth at 15 mg/kg, ip administered every 2 days for 15 days relative to control; type: functional; conditions: H22, 360 h, time 15 day
H22 [24] = assay: Antitumor activity against […] cells xenografted in BALB/c mouse model assessed as inhibition of tumor growth at 45 mg/kg, ip administered every 2 days for 15 days relative to control; type: functional; conditions: H22, 360 h, time 15 day
NCI-H460 = assay: Antiproliferative activity against human NCI-H460 cells assessed as inhibition of cell growth by MTT assay; type: functional, cell-based
SGC-7901 [25] = assay: Antiproliferative activity against human SGC-7901 cells assessed as inhibition of cell growth by MTT assay; type: functional, cell-based
Bel-7402 = assay: Antiproliferative activity against human Bel-7402 cells assessed as inhibition of cell growth by MTT assay; type: functional, cell-based
HepG2 [26] = assay: Antiproliferative activity against human HepG2 cells assessed as inhibition of cell growth by MTT assay; type: functional, cell-based
MDA-MB-231 = assay: Antiproliferative activity against human MDA-MB-231 cells assessed as inhibition of cell growth by MTT assay; type: functional, cell-based
HT-29 = assay: Antiproliferative activity against human HT-29 cells assessed as inhibition of cell growth by MTT assay; type: functional, cell-based
A549/TR = assay: Antiproliferative activity against taxol-resistant human A549/Taxol cells assessed as inhibition of cell growth by MTT assay; type: functional, cell-based
A549 [27] = assay: Antitumor activity against human A549 cells xenografted in BALB/c nude mouse model assessed as inhibition of tumor growth at 80 mg/kg, ip administered every other day for 7 times relative to control; type: functional
MCF7 = assay: cells; conditions: Homo sapiens
4T1 = assay: Antitumor activity against mouse 4T1 cells implanted mouse model assessed as inhibition of tumor growth at 15 mg/kg, ip relative to control; type: functional

SMILES: Cc1cc(=O)oc2cc(OCc3cn(-c4ccc(S(N)(=O)=O)cc4)nn3)ccc12
IC50 (BGC-823 [1]): 0.4 µM | IC50 (MGC-803 [2]): 3.4 µM | IC50 (SGC-7901 [3]): 3.5 µM | inhibition in vivo at 60 mg/kg (MGC-803 [4]): 64.2% | Ratio IC50 (BGC-823 [5]): 4.1 | Ratio IC50 (MGC-803 [6]): 4.1 | Ratio IC50 (SGC-7901 [7]): 4.1

SMILES: COC(=O)c1cccc(COc2c(-c3ccc(OCCOCCc4cn(CN(Cc5ccccc5)Cn5cc(CCOCCOc6ccc(-c7oc8ccccc8c(=O)c7OCc7cccc(C(=O)OC)c7)cc6)nn5)nn4)cc3)oc3ccccc3c2=O)c1
EC50 [11]: 0.0033 µM | EC50 [12]: 0.0033 µM | EC50 [13]: 0.0033 µM | EC50 [14]: 0.0033 µM | EC50 [15]: 0.0033 µM | AUC(0-inf) [16]: 83500 ng·h/mL | Tmax [17]: 3 h | Cmax [18]: 15700 ng/mL | half-life [19]: 10.6 h | Activity [20]: 40% | fold change (FC) [21]: 2

SMILES: Clc1ccc(N/N=C/c2cn(-c3cc(Cl)cc(Cl)c3)nn2)cc1
inhibition in vivo at 15 mg/kg (4T1): > 60% | IC50 (MCF7): 3.2 µM

The next lines start with results.

IC50 (A549 [8]): 2.27 µM
SMILES: COc1cc(/C=C/C(=O)C(Cc2cn(Cc3ccc(Cl)c(Cl)c3)nn2)C(=O)/C=C/c2ccc(O)c(OC)c2)ccc1O
IC50 [9]: > 100 µM | Activity (A549 [10]): 39.07%

IC50 (HepG2 [22]): 0.0596 µM
SMILES: COc1cc(C(=O)c2nn(-c3ccccc3)nc2N2CCC(N)CC2)cc(OC)c1OC
IC50 (Hep 3B2): 0.0409 µM | inhibition in vivo at 15 mg/kg (H22 [23]): 66% | inhibition in vivo at 45 mg/kg (H22 [24]): 82%

IC50 (NCI-H460): 0.0654 µM | IC50 (A549 [8]): 0.063 µM | IC50 (SGC-7901 [25]): 0.063 µM | IC50 (Bel-7402): 0.0654 µM | IC50 (HepG2 [26]): 0.0654 µM | IC50 (MDA-MB-231): 0.0654 µM | IC50 (HT-29): 0.0654 µM | IC50 (A549/TR): 0.0654 µM | IC50 (MCF7): 0.063 µM
SMILES: COc1cc(C(=O)c2nn(-c3ccccc3F)nc2N2CC(O)C2)cc(OC)c1OC
inhibition in vivo at 80 mg/kg (A549 [27]): 60%
